From patent US20170122958A1, “Enzymes Functional Probes” (University of Dundee, priority 2013, published 2017) come the findings set out here.

In one series the target is T1, Brd2(2) (Homo sapiens, UniProt P25440).
T1 construct: Plasmids of the eight single BET bromodomain constructs Brd2(1), Brd2(2), Brd3(1), Brd3(2); His6 (N); made in house; host or cells: E. coli BL21(DE3)
In words: DSF thermal shift. As to conditions: wild type. The series is classed as binding.

The next series concerns the target T2, Brd2(1) (Homo sapiens, UniProt P25440).
T2 construct: Plasmids of the eight single BET bromodomain constructs Brd2(1), Brd2(2), Brd3(1), Brd3(2); His6 (N); made in house; host or cells: E. coli BL21(DE3)
In words: DSF thermal shift. Conditions: wild type. The series is classed as binding.

A further series can be described thus: Solubility observations. Conditions: observation in words.
The next series has as its target Brd2(1)*(Met165Ala) (Homo sapiens, UniProt P25440, M165A). Nature of the series: DSF thermal shift. In kind it is binding. Further details: Plasmids of the eight single BET bromodomain constructs Brd2(1), Brd2(2), Brd3(1), Brd3(2); His6 (N); made in house; host or cells: E. coli BL21(DE3). As to conditions: mutant. A digest of the protocol:
(§1)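 Proteins buffer-exchanged into 20 mM HEPES pH 7.5, 100 mM NaCl; SYPRO Orange reporter. Protein 2 or 6 µM with compound 10 or 30 µM (histone peptide 100 or 300 µM) on two instruments, ramped from 37 or 25 °C to 95 °C, triplicates. Tm from first-derivative maximum of sigmoidal fits.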

The target in another series is T3, Brd2(1)*(Met165-Leu) (Homo sapiens, UniProt P25440, M165L).
T3 construct: Plasmids of the eight single BET bromodomain constructs Brd2(1), Brd2(2), Brd3(1), Brd3(2); His6 (N); made in house; host or cells: E. coli BL21(DE3)
T3 sequence (P25440 74-180 M165L limits assumed): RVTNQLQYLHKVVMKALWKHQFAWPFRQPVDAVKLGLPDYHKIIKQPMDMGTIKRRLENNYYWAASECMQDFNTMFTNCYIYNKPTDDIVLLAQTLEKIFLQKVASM
Nature of the series: DSF thermal shift. The series is classed as binding. Conditions: mutant. An outline of the steps:
as §1

The target in another series is T4, Brd2(2)*(Met438-Ala) (Homo sapiens, UniProt P25440, M438A).
T4 construct: Plasmids of the eight single BET bromodomain constructs Brd2(1), Brd2(2), Brd3(1), Brd3(2); His6 (N); made in house; host or cells: E. coli BL21(DE3)
T4 sequence (P25440 344-453 M438A limits assumed): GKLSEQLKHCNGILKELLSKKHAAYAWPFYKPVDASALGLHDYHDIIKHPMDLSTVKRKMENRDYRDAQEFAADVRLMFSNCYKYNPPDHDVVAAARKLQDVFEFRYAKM
Nature of the series: DSF thermal shift. In kind it is binding. Conditions: mutant. A digest of the protocol: as §1

The target of another series is T5, Brd2(2)*(Met438-Leu) (Homo sapiens, UniProt P25440, M438L).
T5 construct: Plasmids of the eight single BET bromodomain constructs Brd2(1), Brd2(2), Brd3(1), Brd3(2); His6 (N); made in house; host or cells: E. coli BL21(DE3)
T5 sequence (P25440 344-453 M438L limits assumed): as the sequence (P25440 344-453 M438A limits assumed) above, with A95L counted along it
In words: DSF thermal shift. As to conditions: mutant. In kind it is binding. A digest of the protocol:
as §1

The target in another series is Brd2(1)*(Leu110-Ala) (Homo sapiens, UniProt P25440, L110A). Nature of the series: DSF thermal shift. The series is classed as binding. Further details: Plasmids of the eight single BET bromodomain constructs Brd2(1), Brd2(2), Brd3(1), Brd3(2); His6 (N); made in house; host or cells: E. coli BL21(DE3). Conditions: mutant. As to the method:
(§2) DSF assays were performed on a LightCycler®480 from Roche or a Mx3005P Real Time PCR machine from Stratagene. […] SYPRO®Orange from Invitrogen Molecular Probes® was used as a reporter dye to monitor the denaturing process of the proteins. Samples were assayed on a 96-well plate with final protein concentrations of 2 μM for the LightCycler®480 and 6 μM for Mx3005P. Compounds were added at a final concentration of 10 μM for the LightCycler®480 and 30 μM for Mx3005P, while the tetra acetylated histone peptide was added to a final concentration of 100 μM and 300 μM respectively. […] The temperature was raised with a step of 0.6° C. per minute from 37° C. to 95° C. with the LightCycler®480 collecting 39 measurements per ° C., and 1° C. per minute from 25° C. to 95° C. with Mx3005P, collecting fluorescence readings at the end of each interval. Each sample was run in triplicates.
(§3) Collected data was analysed by IGOR Pro 6, a scientific software tool from Wave Metrics, Inc. Analysis was done following the recommendations of Niesen et al.. Fluorescence intensity was plotted as a function of temperature, generating a sigmoidal curve described by a two-state transition from folded to unfolded protein. Curves were fitted by the following sigmoidal equation: […]
(§4) A1 and A2 are the values of minimum and maximum intensities, respectively, x0 is the inflection point and dx is the rate. Fitted curves were differentiated in IGOR Pro 6 and the maximum of the first derivative was identified using the same program. These values correspond to the inflection points of the transition curves and thus to the melting temperatures of the proteins (Tm).

The target in a further series is Brd2(2)*(Leu383-Ala) (Homo sapiens, UniProt P25440, L383A). In words: DSF thermal shift. Conditions: mutant. The series is classed as binding. Further details: Plasmids of the eight single BET bromodomain constructs Brd2(1), Brd2(2), Brd3(1), Brd3(2); His6 (N); made in house; host or cells: E. coli BL21(DE3). As to the method: as §2, §3, §4
Sequence of Brd2(2)*(Leu383-Ala) (P25440 344-453 L383A limits assumed): as the sequence (P25440 344-453 M438A limits assumed) above, with L40A, A95M counted along it
The target of a further series is T6, Brd4(1) (Homo sapiens, UniProt O60885).
T6 construct: Plasmids of the eight single BET bromodomain constructs Brd2(1), Brd2(2), Brd3(1), Brd3(2), Brd4(1), Brd4(2), Brdt(1) and Brdt(2); His6 (N); made in house; host or cells: E. coli BL21(DE3)
In words: DSF thermal shift. Conditions: wild type. In kind it is binding.

For the next series, the target named is T7, brd4(1)L094A (Homo sapiens, UniProt O60885, L94A).
T7 construct: Plasmids of the eight single BET bromodomain constructs Brd2(1), Brd2(2), Brd3(1), Brd3(2), Brd4(1), Brd4(2), Brdt(1) and Brdt(2); His6 (N); made in house; host or cells: E. coli BL21(DE3)
In words: DSF thermal shift. In kind it is binding. Conditions: mutant.

For a further series, the target named is T8, Brd4(2) (Homo sapiens, UniProt O60885).
T8 construct: Plasmids of the eight single BET bromodomain constructs Brd2(1), Brd2(2), Brd3(1), Brd3(2), Brd4(1), Brd4(2), Brdt(1) and Brdt(2); His6 (N); made in house; host or cells: E. coli BL21(DE3)
Nature of the series: DSF thermal shift. In kind it is binding. As to conditions: wild type.

For another series, the target named is T9, brd4(2)L387A (Homo sapiens, UniProt O60885, L387A).
T9 construct: Plasmids of the eight single BET bromodomain constructs Brd2(1), Brd2(2), Brd3(1), Brd3(2), Brd4(1), Brd4(2), Brdt(1) and Brdt(2); His6 (N); made in house; host or cells: E. coli BL21(DE3)
In words: DSF thermal shift. In kind it is binding. As to conditions: mutant.

In series [1] the test system is WT and mutants (Leu to Ala, Leu to Val and Leu to Ile) of Brd2(2). In words: ITC of compound into protein (FIG. 16). In kind it is binding, human. As to conditions: 250 μM compound into 25 μM protein; result in words. As to the method:
To investigate the utility of the new compounds further, the inventors performed isothermal titration experiments by titrating 250 μM compound solutions (AL, ME-Am1, ET-Am1, ME-Am2, ET-Am2, 9-ME, 9-ET, 9-ME-Am1 and 9-ET-Am1) 25 μM protein solutions (WT and mutants (Leu to Ala, Leu to Val and Leu to Ile) of Brd2(2)).
ITC experiments were carried out on a ITC200 instrument from MicroCal™ Experiments were conducted at 3 different temperatures 15° C., 25° C. and 30° C., while stirring at 1000 rpm. Buffers of proteins, peptide and compounds were matched to 20 mM HEPES pH 7.5 at 25° C. and 100 mM NaCl. Frozen protein was buffer exchanged as described for the DSF experiments. Each titration comprised 1 initial injection of 0.4 μl lasting 0.8 s, followed by 19 injections of 2 μl lasting 4 s each at 2 min intervals. The initial injection was discarded during data analysis. Standard and reverse titrations were conducted depending on the binding partners.
All the data was fitted to a single binding site model using the Microcal LLC ITC200 Origin software provided by the manufacturer to yield enthalpies of binding (ΔH) and binding constants (Kas). Further thermodynamic parameters were calculated from these values (changes in entropy ΔS, changes in free energy AG and dissociation constants (Kds)).

For series [2], the system named is Brd2(1) and (2) wild type and leucine to alanine, valine and isoleucine mutants. Nature of the series: DSF thermal stabilization (FIG. 15). In kind it is binding, human. Conditions: result in words. As to the method:
as §2, §3, §4

T1 sequence (P25440 344-453 limits assumed): as the sequence (P25440 344-453 M438A limits assumed) above, with A95M counted along it
T2 sequence (P25440 74-180 limits assumed): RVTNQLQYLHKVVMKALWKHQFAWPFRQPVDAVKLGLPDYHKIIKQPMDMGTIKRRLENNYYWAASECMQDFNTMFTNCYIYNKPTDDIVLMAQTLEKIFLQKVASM
Sequence of Brd2(1)*(Leu110-Ala) (P25440 74-180 L110A limits assumed): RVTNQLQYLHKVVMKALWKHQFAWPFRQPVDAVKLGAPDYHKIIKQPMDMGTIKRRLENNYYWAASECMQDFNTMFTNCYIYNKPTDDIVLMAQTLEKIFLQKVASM
Sequence of Brd2(1)*(Met165Ala) (P25440 74-180 M165A limits assumed): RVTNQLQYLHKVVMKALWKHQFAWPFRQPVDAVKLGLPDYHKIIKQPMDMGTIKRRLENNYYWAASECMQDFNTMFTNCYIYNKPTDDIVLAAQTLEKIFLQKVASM

Regarding `Cc1cccc(S(=O)(=O)Nc2ccc3c(c2)CN(C)C(=O)N3)c1` [Compound 53, 3-methyl-N-(3-methyl-2-oxo-1,2,3,4-tetrahydroquinazolin-6-yl)benzenesulfonamide], at Brd2(2), the “ΔTm Brd2(2)” value worked out at 0.7 ± 0.1 K. Moreover, the “ΔTm Brd2(1)” value on Brd2(1) was 0.0 ± 0.3 K. Moreover, in the series “Solubility observations”, the Solubility result is “low solubility”. The “ΔTm Brd2(1)*(Met165-Ala)” value on Brd2(1)*(Met165Ala) is given as 0.0 ± 0.1 K. Moreover, the “ΔTm Brd2(1)*(Met165-Leu)” value at Brd2(1)*(Met165-Leu) was found to be 0.0 ± 0.1 K. Besides, on Brd2(2)*(Met438-Ala), the “ΔTm Brd2(2)*(Met165-Ala)” value amounted to 0.0 ± 0.1 K. On Brd2(2)*(Met438-Leu), the “ΔTm Brd2(2)*(Met165-Leu)” value worked out at 0.0 ± 0.0 K.
Turning to `COC(=O)[C@@H](CC1CC1)[C@@H]1N=C(c2ccc(Cl)cc2)c2cc(OC)ccc2-n2c(C)nnc21` (racemic) [Compound 16, (+−)-methyl (S)-2-((S)-6-(4-chlorophenyl)-8-methoxy-1-methyl-4H-benzo[f][1,2,4]triazolo[4,3-a][1,4]diazepin-4-yl)-3-cyclopropylpropanoate], on Brd2(1)*(Leu110-Ala), the “ΔTm Brd2(1)*(Leu110-Ala)” value turned out to be 1.6 ± 1.0 K. The “ΔTm Brd2(2)*(Leu383-Ala)” value on Brd2(2)*(Leu383-Ala) came out at 2.3 ± 0.3 K. The “ΔTm Brd2(2)” value on Brd2(2) stood at 1.1 ± 0.3 K. Moreover, on Brd4(1), the “ΔTm Brd4(1)” value is −0.4 ± 0.5 K. For the same molecule, the “ΔTm Brd4(1)* (L094A)” value on brd4(1)L094A is 1.3 ± 0.2 K. The “ΔTm Brd4(2)” value at Brd4(2) is recorded as 0.3 ± 0.9 K. Moreover, the “ΔTm Brd2(1)” value at Brd2(1) is given as −0.5 ± 0.6 K. At brd4(2)L387A, the “ΔTm Brd4(2)* (L387A)” value was found to be 0.1 ± 0.1 K.
With `CCC[C@H](C(=O)OC)[C@@H]1N=C(c2ccc(Cl)cc2)c2cc(OC)ccc2-n2c(C)nnc21` (racemic) [Compound 15, (+−)-Methyl (S)-2-((S)-6-(4-chlorophenyl)-8-methoxy-1-methyl-4H-benzo[f][1,2,4]triazolo[4,3-a][1,4]diazepin-4-yl)pentanoate], the “ΔTm Brd2(1)*(Leu110-Ala)” value at Brd2(1)*(Leu110-Ala) was determined as 0.9 ± 0.6 K. The “ΔTm Brd2(2)*(Leu383-Ala)” value at Brd2(2)*(Leu383-Ala) is 1.4 ± 0.2 K. The “ΔTm Brd2(2)” value on Brd2(2) came out at 0.5 ± 0.2 K. On Brd4(1), the “ΔTm Brd4(1)” value came to 0.6 ± 1.1 K. At brd4(1)L094A, the “ΔTm Brd4(1)* (L094A)” value was 2.4 ± 1.3 K. The “ΔTm Brd4(2)” value on Brd4(2) was −0.5 ± 1.1 K. Moreover, the “ΔTm Brd2(1)” value on Brd2(1) is listed as 0.1 ± 0.3 K. In addition, the “ΔTm Brd4(2)* (L387A)” value at brd4(2)L387A was 1.6 ± 0.3 K.
`CCNC(=O)[C@H](CC)[C@@H]1N=C(c2ccc(Cl)cc2)c2ccc(OC)cc2-n2c(C)nnc21` (racemic) [Compound 9-ET-Am1, (+−) (R)-2-((S)-6-(4-chlorophenyl)-9-methoxy-1-methyl-4H-benzo[f][1,2,4]triazolo[4,3-a][1,4]diazepin-4-yl)-N-ethylbutanamide]: in [1], the “Selectivity for Brd2(2) mutants relative to wild type by ITC (FIG. 16)” value was “higher selectivity for the mutants relative to wild types”. In addition, the “Thermal stabilization of Brd2 mutants versus wild types (FIG. 15)” value in series [2] is reported as “smaller shifts”.
For `COC(=O)CC1N=C(c2ccc(Cl)cc2)c2cc(OC)ccc2-n2c(C)nnc21` (racemic) [I-BET-OMe, (+−)-methyl 2-(6-(4-chlorophenyl)-8-methoxy-1-methyl-4H-benzo[f][1,2,4]triazolo[4,3-a][1,4]diazepin-4-yl)acetate, reference compound], the “Thermal stabilization of Brd2 mutants versus wild types (FIG. 15)” value in series [2] is reported as “no selective stabilization of the mutant proteins”.
